One may read the IC50 as the point on the concentration scale where inhibition reaches its midpoint.

Molecules are shown by their SMILES.

The target in one assay is T1, Chk1 (Homo sapiens, UniProt O14757).
T1 construct: purchased Upstate Biotechnology
T1 sequence (O14757 1-476): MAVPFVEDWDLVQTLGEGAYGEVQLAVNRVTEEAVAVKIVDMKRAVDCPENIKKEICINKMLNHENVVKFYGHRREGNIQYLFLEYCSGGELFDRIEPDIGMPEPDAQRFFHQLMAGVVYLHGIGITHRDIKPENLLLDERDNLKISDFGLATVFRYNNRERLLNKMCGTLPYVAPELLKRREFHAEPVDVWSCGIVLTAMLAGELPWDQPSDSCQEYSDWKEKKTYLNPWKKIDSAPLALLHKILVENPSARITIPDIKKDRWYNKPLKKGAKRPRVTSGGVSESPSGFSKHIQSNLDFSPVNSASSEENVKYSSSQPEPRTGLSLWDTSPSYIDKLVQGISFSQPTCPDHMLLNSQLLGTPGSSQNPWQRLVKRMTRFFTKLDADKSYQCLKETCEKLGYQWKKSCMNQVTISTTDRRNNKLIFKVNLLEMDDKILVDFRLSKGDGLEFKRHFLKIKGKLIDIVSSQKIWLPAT
The assay is described as follows: Chk1 kinase assay: incorporation of γ-33P ATP into immobilized myelin basic protein. Format: biochemical. Conditions: Table 11, Chk1 only; class symbols A-D; read-out: Chk1 IC50. The procedure, abridged:
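Read-out is scintillation counting of 33P incorporated into plate-bound myelin basic protein. Chk1 runs at 10 nM enzyme with 10 μM ATP, Chk2 at 20 nM with 30 μM ATP, each for 1 hour at room temperature. Duplicate points; IC50 taken as 50% activity reduction, Ki computed from IC50.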
As to `Nc1ncc(-c2cccc(NC(=O)Cc3ccc(Cl)cc3Cl)c2)nc1-c1nnc([C@H]2CCCNC2)[nH]1` [Example 809, N-[3-(5-amino-6-{5-[(3S)-piperidin-3-yl]-4H-1,2,4-triazol-3-yl}pyrazin-2-yl)phenyl]-2-(2,4-dichlorophenyl)acetamide], the IC50 is under 50 nM. Same read-out and setting: under `Nc1ncc(-c2cccc(C(=O)NCc3c(F)ccc(F)c3F)c2)nc1C(=O)N[C@H]1CCNC1` [Example 815, 3-amino-N-[(3S)-pyrrolidin-3-yl]-6-[3-({[(2,3,6-trifluorophenyl)methyl]amino}carbonyl)phenyl]pyrazine-2-carboxamide] stands 50 to 1000 nM; under `Nc1ncc(-c2cccc(CNS(=O)(=O)c3ccc4c(c3)OCCO4)c2)nc1C(=O)N[C@H]1CCCNC1` [Example 937, 3-amino-6-(3-{[(2,3-dihydro-1,4-benzodioxin-6-ylsulfonyl)amino]methyl}phenyl)-N-[(3S)-piperidin-3-yl]pyrazine-2-carboxamide], under 50 nM; under `Nc1ncc(-c2cccc(CNS(=O)(=O)c3ccc(Cl)cc3)c2)nc1C(=O)N[C@H]1CCCNC1` [Example 955, 3-amino-6-[3-({[(4-chlorophenyl)sulfonyl]amino}methyl)phenyl]-N-[(3S)-piperidin-3-yl]pyrazine-2-carboxamide], under 50 nM. Still for that read-out and setting: under `Nc1ncc(-c2cccc(CN[C@H]3CCc4ccccc43)c2)nc1C(=O)N[C@H]1CN2CCC1CC2` [Example 863, 3-amino-N-[(3R)-1-azabicyclo[2.2.2]oct-3-yl]-6(3-{[(1S)-2,3-dihydro-1H-inden-1-ylamino]methyl}phenyl)pyrazine-2-carboxamide] stands 50 to 1000 nM. The same measure, in the same setting: in the case of `CC(C)(C)c1ccc(CNC(=O)c2cccc(-c3cnc(N)c(C(=O)N[C@H]4CCCNC4)n3)c2)cc1` [Example 950, 3-amino-6-{3-[({[4-(1,1-dimethylethyl)phenyl]methyl}amino)carbonyl]phenyl}-N-[(3S)-piperidin-3-yl]pyrazine-2-carboxamide] it was under 50 nM; in that of `Nc1ncc(-c2cccc(CNS(=O)(=O)c3cccs3)c2)nc1C(=O)N[C@H]1CCCNC1` [Example 953, 3-amino-N-[(3S)-piperidin-3-yl]-6-(3-{[(2-thienylsulfonyl)amino]methyl}phenyl)pyrazine-2-carboxamide], under 50 nM.

The same assay, now with this note: Table 11; Chk1 only; read-out: Chk1 IC50.
Regarding `COc1ccc(N/N=C(\C)c2nc(-c3cccc(C(=O)NCc4ccccc4)c3)cnc2N)cc1` [Example 599, 3-(5-amino-6-{(1E)-N-[4-(methyloxy)phenyl]ethanehydrazonoyl}pyrazin-2-yl)-N-(phenylmethyl)benzamide], the IC50 was 1000 to 10000 nM. The same measure, in the same setting: in the case of `Cn1nc(-c2nc(-c3cccc(C(=O)N[C@H]4CCc5ccccc54)c3)cnc2N)nc1C1CCCN(C(=O)OCc2ccccc2)C1` (stereo partly drawn) [Example 721, phenylmethyl 3-{3-[3-amino-6-(3-{[(1S)-2,3-dihydro-1H-inden-1-ylamino]carbonyl}phenyl)pyrazin-2-yl]-1-methyl-1H-1,2,4-triazol-5-yl}piperidine-1-carboxylate] it was at least 10000 nM; in that of `CC(=NNc1ccc([N+](=O)[O-])cc1)c1nc(-c2cccc(C(=O)NCc3ccccc3)c2)cnc1N` [Example 635, 3-(5-Amino-6-{1-[(4-nitro-phenyl)-hydrazono]-ethyl}-pyrazin-2-yl)-N-benzyl-benzamide], at least 10000 nM; in that of `CNC(=O)c1nc(-c2cccc(CNC3CCc4c(-c5cccs5)cccc43)c2)cnc1N` (stereo not drawn) [Example 494, 3-amino-N-methyl-6-[3-({[4-(2-thienyl)-2,3-dihydro-1H-inden-1-yl]amino}methyl)phenyl]pyrazine-2-carboxamide], under 50 nM. On to `CNC(=O)c1nc(-c2cccc(CN[C@@H]3CCC[C@H]3OCc3ccccc3)c2)cnc1N` [Example 506, 3-amino-N-methyl-6-{3-[({(1R,2R)-2-[(phenylmethyl)oxy]cyclopentyl}amino)methyl]phenyl}pyrazine-2-carboxamide], for which the IC50 lay in the range of 50 to 1000 nM.

As to `Nc1ncc(-c2cccc(C(=O)N[C@H]3c4ccccc4C[C@H]3O)c2)nc1C(=O)N[C@H]1CCNC1` [Example 708, 3-amino-6-[3-({[(1S,2R)-2-hydroxy-2,3-dihydro-1H-inden-1-yl]amino}carbonyl)phenyl]-N-[(3S)-pyrrolidin-3-yl]pyrazine-2-carboxamide], the IC50 was 50 to 1000 nM. Same read-out and setting: in the case of `C/C(=N\Nc1ccc(C)cc1)c1nc(-c2cccc(C(=O)NCc3ccccc3)c2)cnc1N` [Example 602, 3-{5-amino-6-[(1E)-N-(4-methylphenyl)ethanehydrazonoyl]pyrazin-2-yl}-N-(phenylmethyl)benzamide] it was at least 10000 nM. On the same count and under the same terms, under `Nc1ncc(-c2cccc(CN[C@H]3CCc4ccccc43)c2)nc1C(=O)N1CCCC1` [Example 549, 5-(3-{[(1S)-2,3-dihydro-1H-inden-1-ylamino]methyl}phenyl)-3-(pyrrolidin-1-ylcarbonyl)pyrazin-2-amine] stands 1000 to 10000 nM; under `CNC(=O)c1nc(-c2cccc(CNC3CCc4cc(F)c(F)cc43)c2)cnc1N` (stereo not drawn) [Example 476, 3-amino-6-(3-{[(5,6-difluoro-2,3-dihydro-1H-inden-1-yl)amino]methyl}phenyl)-N-methylpyrazine-2-carboxamide], 50 to 1000 nM. Same read-out and setting: under `C[C@H](NC(=O)c1cccc(-c2cnc(N)c(C(=O)N[C@H]3CCNC3)n2)c1)c1ccccc1` [Example 717, 3-amino-6-[3-({[(1S)-1-phenylethyl]amino}carbonyl)phenyl]-N-[(3S)-pyrrolidin-3-yl]pyrazine-2-carboxamide] stands 50 to 1000 nM; under `CNC(=O)c1nc(-c2cccc(CNC3CCc4cc(OCCN5CCOCC5)ccc43)c2)cnc1N` (stereo not drawn) [Example 505, 3-amino-N-methyl-6-{3-[({5-[(2-morpholin-4-ylethyl)oxy]-2,3-dihydro-1H-inden-1-yl}amino)methyl]phenyl}pyrazine-2-carboxamide], 50 to 1000 nM.

Staying with this assay, now noted: read-out: Chk1 IC50.
Consider `CNC(=O)c1nc(-c2cccc(C(=O)NCc3ccco3)c2)cnc1N` [Example 203, 3-amino-6-(3-{[(furan-2-ylmethyl)amino]carbonyl}phenyl)-N-methylpyrazine-2-carboxamide], for which the IC50 was in the range of 50 to 1000 nM. Same read-out and setting: in the case of `CNC(=O)c1nc(-c2cccc(C(N)=O)c2)cnc1N` [Example 85, 3-amino-6-[3-(aminocarbonyl)phenyl]-N-methylpyrazine-2-carboxamide] it was 1000 to 10000 nM. As to `CNC(=O)c1nc(-c2cccc(C(=O)NNc3ccccc3)c2)cnc1N` [Example 328, 3-amino-N-methyl-6-{3-[(2-phenylhydrazino)carbonyl]phenyl}pyrazine-2-carboxamide], the IC50 was under 50 nM. Still for that read-out and setting: under `CNC(=O)c1nc(-c2cccc(NS(C)(=O)=O)c2)cnc1N` [Example 82, 3-amino-N-methyl-6-{3-[(methylsulfonyl)amino]phenyl}pyrazine-2-carboxamide] stands 1000 to 10000 nM; under `CNC(=O)c1nc(-c2cccc(OCCN3CCOCC3)c2)cnc1N` [Example 185, 3-amino-N-methyl-6-{3-[(2-morpholin-4-ylethyl)oxy]phenyl}pyrazine-2-carboxamide], 1000 to 10000 nM; under `CCc1ccc(CNC(=O)c2cccc(-c3cnc(N)c(C(=O)NC)n3)c2)cc1` [Example 413, 3-amino-6-[3-({[(4-ethylphenyl)methyl]amino}carbonyl)phenyl]-N-methylpyrazine-2-carboxamide], 50 to 1000 nM. The same measure, in the same setting: in the case of `CNC(=O)c1nc(-c2cccc(C(=O)NCc3ccc(F)cc3C(F)(F)F)c2)cnc1N` [Example 405, 3-amino-6-{3-[({[4-fluoro-2-(trifluoromethyl)phenyl]methyl}amino)carbonyl]phenyl}-N-methylpyrazine-2-carboxamide] it was 50 to 1000 nM; in that of `CNC(=O)c1nc(-c2cccc(CNCc3cccc(F)c3F)c2)cnc1N` [Example 389, 3-amino-6-[3-({[(2,3-difluorophenyl)methyl]amino}methyl)phenyl]-N-methylpyrazine-2-carboxamide], 50 to 1000 nM. The same measure, in the same setting: under `CNC(=O)c1nc(-c2cccc(C(=O)NCc3ccc4c(c3)OCO4)c2)cnc1N` [Example 223, 3-amino-6-(3-{[(1,3-benzodioxol-5-ylmethyl)amino]carbonyl}phenyl)-N-methylpyrazine-2-carboxamide] stands 50 to 1000 nM; under `CNC(=O)c1nc(-c2cccc(CNCc3cc(Cl)ccc3Cl)c2)cnc1N` [Example 408, 3-amino-6-[3-({[(2,5-dichlorophenyl)methyl]amino}methyl)phenyl]-N-methylpyrazine-2-carboxamide], 50 to 1000 nM. Regarding `CNC(=O)c1nc(-c2cccc(C(=O)NCc3ccc(N)cc3)c2)cnc1N` [Example 230, 3-amino-6-[3-({[(4-aminophenyl)methyl]amino}carbonyl)phenyl]-N-methylpyrazine-2-carboxamide], the IC50 fell in the range of 50 to 1000 nM. Same read-out and setting: in the case of `CNC(=O)c1nc(-c2cccc(CNCc3ccc(Oc4ccccc4)cc3)c2)cnc1N` [Example 397, 3-amino-N-methyl-6-{3-[({[4-(phenyloxy)phenyl]methyl}amino)methyl]phenyl}pyrazine-2-carboxamide] it was 50 to 1000 nM.

For the origin of these results see US7704995B2 (Exelixis, Inc., priority 2003, dated 2010).
